The values below come from ChEMBL document CHEMBL1201862, “PubChem BioAssay data set” (2004).

What is called GI50 is the concentration that inhibits growth by half.

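Method: 48-hour compound exposure of cells in 96-well plates, five concentrations, linear interpolation of endpoints. At the GI50, growth is halved.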 Activity calls are given as the source filed them. No stated cut-off is given here; in the data, active = GI50 up to about 1.1 µM and inactive = higher.

What all share (experiment): DTP human tumour cell line panel, 48 h
The test system of test [1] is DLD-1.
Test [2] relates to DMS-273.
Test [3] has as its system XF498.
The subject of test [4] is SNB-78.
In test [5] the test system is HOP-18.
The subject of test [6] is M19-MEL.
The test system of test [7] is DMS-114.
Test [8] deals with LXFL 529.
For test [9], the system named is RXF 631.

Take `CN1CCN(c2ccc3[nH]c(-c4ccc5[nH]c(-c6ccc(O)cc6)nc5c4)nc3c2)CC1`: the GI50 was 178 µM (inactive) in [1]; 21.6 µM (inactive) in test [2]; 34.4 µM (inactive) in test [3]; 265 µM (inactive) in test [4]; 209 µM (inactive) in test [5]; 18.1 µM (inactive) in test [6]. Moreover, the GI50 in [7] was 38.5 µM (inactive).
As for `CC(C)S(=O)(=O)ON1C(=O)c2ccc(N(C)C)cc2C1=O`, the GI50 in [2] is 19.8 µM (inactive); in test [8] it was 9.91 µM (inactive); in test [3] it was 17.7 µM (inactive); in test [4], 31.3 µM (inactive); in test [9], 13.2 µM (inactive); in test [5], 13.5 µM (inactive).
Regarding `CCOC(=O)C(/C(=N\NC(=O)OC)C(=O)Nc1cc(OC)ccc1OC)c1cnc2ccccc2n1` (stereo not drawn), the GI50 in [1] was > 100 µM (inactive); in test [8] it was > 100 µM (inactive); in test [3] it was > 100 µM (inactive); in [4] it was > 100 µM (inactive); in test [5], 85.9 µM (inactive); in test [6], > 100 µM (inactive). For the same compound, the GI50 in [7] was > 100 µM (inactive).
On to `CCCCCCCCCOC(=S)NC`, for which the GI50 in [1] was 16.6 µM (inactive); in test [2], 18.3 µM (inactive); in test [8], 17.8 µM (inactive); in test [3], 18.2 µM (inactive); in test [9], 21 µM (inactive); in test [5], 19.6 µM (inactive). In [6], the GI50 is 23.4 µM (inactive).
With `NNC(=O)CCC(=O)Nc1ccc(Cl)cc1Cl`, the GI50 in test [1] is > 100 µM (inactive); in [2], 31.8 µM (inactive); in test [8], 29.7 µM (inactive); in test [3] it was > 100 µM (inactive); in test [4] it was > 100 µM (inactive); in test [9] it was > 100 µM (inactive). Besides, the GI50 in [6] and in test [7] was > 100 µM (inactive) throughout.
Take `O=[N+]([O-])c1cccc(/C=N\NS(=O)(=O)c2ccc(Cl)cc2)c1O`: the GI50 was 55.5 µM (inactive) in test [1]; > 100 µM (inactive) in test [2]; 83.6 µM (inactive) in [8]; > 100 µM (inactive) in [4]; > 100 µM (inactive) in test [9]; 37.1 µM (inactive) in test [5]. For the same compound, the GI50 in test [6] was > 100 µM (inactive).
Consider `O=C(c1ccccc1)[C@H]1Nc2cnccc2C2c3ccccc3CC21` (stereo partly drawn), for which the GI50 was 7.01 µM (inactive) in test [1]; 26.6 µM (inactive) in test [2]; 4.38 µM (inactive) in test [8]; 23.7 µM (inactive) in test [3]; 15.5 µM (inactive) in [4]; 19.9 µM (inactive) in test [9]. In addition, the GI50 was 5.6 µM (inactive) in [5], 8.3 µM (inactive) in test [6] and 10 µM (inactive) in test [7].
As to `Cc1cc(Cl)ccc1NC(=O)C(=O)Cc1nc2ccc(C(=O)c3ccccc3)cc2nc1O`, the GI50 in test [1] is > 100 µM (inactive); in test [2] it was 49.2 µM (inactive); in test [8], 48.6 µM (inactive); in test [3] it was > 100 µM (inactive); in test [5], > 100 µM (inactive); in [6], > 100 µM (inactive). The GI50 in test [7] was 33.4 µM (inactive).
`COC(=O)N/N=C/c1oc(-c2cccc([N+](=O)[O-])c2)c(-c2cccc([N+](=O)[O-])c2)c1[N+](=O)[O-]`: the GI50 in test [1], in test [2], in test [8], in test [3], in test [5] and in test [6] was > 100 µM (inactive) in each case.
For `CN1C(c2ccccc2)CC(C)(O)CC1c1ccccc1` (stereo not drawn), the GI50 in test [1], in test [2], in test [8], in test [4], in [9] and in test [6] was > 100 µM (inactive) each time. The GI50 in [7] is > 100 µM (inactive).
Regarding `CC(=O)OC(OC(C)=O)c1ncccc1C(=O)OC(C)C`, the GI50 is 31.2 µM (inactive) in test [1]; 31.3 µM (inactive) in [2]; 78.5 µM (inactive) in test [8]; > 100 µM (inactive) in test [3]; > 100 µM (inactive) in [4]; > 100 µM (inactive) in [5]. Moreover, the GI50 in test [6] was 30.1 µM (inactive); in test [7], > 100 µM (inactive).
Turning to `O=CC1CCCc2ccccc21` (stereo not drawn), the GI50 in test [1] was > 43.1 µM (inactive); in test [2], > 100 µM (inactive); in [8], > 100 µM (inactive); in test [3] it was > 100 µM (inactive); in [4] it was > 100 µM (inactive); in [5], > 100 µM (inactive). Further, the GI50 in test [6] is > 100 µM (inactive); in [7], > 47.3 µM (inactive).
As to `CN(C)C1=NC2=S(SC(Nc3ccccc3)=N2)S1` (stereo not drawn), the GI50 in [1] was 27.2 µM (inactive); in test [2], 14.8 µM (inactive); in test [8] it was 10 µM (inactive); in [3], 14 µM (inactive); in test [4] it was 34.4 µM (inactive); in [9] it was > 100 µM (inactive). Also, the GI50 in [5] is 25 µM (inactive); in test [6], 30 µM (inactive); in [7], 3.47 µM (inactive).
Consider `O=C(Nc1cc(Cl)ccc1Cl)c1cc2cccc(Br)c2oc1=O`, for which the GI50 is > 100 µM (inactive) in [1]; > 100 µM (inactive) in test [2]; 21.9 µM (inactive) in test [3]; > 100 µM (inactive) in test [5]; > 100 µM (inactive) in test [6]; > 100 µM (inactive) in test [7].
As for `CCCCCC(=O)OC[n+]1ccc2c(C)c3[nH]c4ccc(OC)cc4c3c(C)c2c1`, the GI50 is 0.137 µM (active) in [1]; 0.0341 µM (active) in [2]; 0.366 µM (active) in test [8]; 0.449 µM (active) in test [4]; 0.429 µM (active) in test [9]; 0.628 µM (active) in [7].
For the compound `O=C1CCC(=O)c2cc(Br)ccc2N1`, the GI50 in test [1], in [2], in test [8], in test [3], in test [4] and in test [9] was > 100 µM (inactive) each time. Also, the GI50 in test [5] is > 100 µM (inactive); in [6], > 70.5 µM (inactive); in test [7] it was > 90.6 µM (inactive).
Regarding `CCCCNC(=S)OCCC(C)CCCC(C)C` (stereo not drawn), the GI50 in [1], in [2], in test [8], in test [3], in test [4] and in test [5] was > 100 µM (inactive) each time. Moreover, the GI50 in [6] and in test [7] was > 100 µM (inactive) throughout.
With `N#CCCN(c1ccc(/C=C2\N=C(Cc3ccccc3)OC2=O)cc1)S(=O)(=O)c1ccccc1`, the GI50 in test [1], in test [2], in test [8], in test [3], in test [4] and in [7] was > 100 µM (inactive) throughout.
Consider `CC1CCC2c3c([nH]c4ccccc34)C3C(=O)N(c4ccccc4)C(=O)C3C2C1` (stereo not drawn), for which the GI50 in test [1] was > 250 µM (inactive); in [2] it was 40.6 µM (inactive); in test [8] it was > 250 µM (inactive); in [3] it was 1.82 µM (inactive); in [4] it was 10.6 µM (inactive); in [9], 89.1 µM (inactive). The GI50 was 18.9 µM (inactive) in [5], > 250 µM (inactive) in [6] and 45.5 µM (inactive) in test [7].
In the case of `O=C(CN1CCN(c2cccc(Cl)c2)CC1)N1CCc2c([nH]c3ccccc23)C1c1cccnc1` (stereo not drawn), the GI50 is 7.31 µM (inactive) in test [1]; 6.68 µM (inactive) in test [2]; 12.2 µM (inactive) in test [3]; 18.3 µM (inactive) in [4]; 7.31 µM (inactive) in test [9]; 33.2 µM (inactive) in [5]. The GI50 was 7.76 µM (inactive) in test [6] and 4.25 µM (inactive) in [7].
For the compound `C/C(CC(=O)Nc1cccc([N+](=O)[O-])c1)=N\NC(=O)C[n+]1ccccc1`, the GI50 in [1], in test [8], in [3], in [4], in [6] and in test [7] was > 100 µM (inactive) each time.
For `C/C(=N\N(C)C)c1sc(-n2nc(-c3ccccc3)cc2-c2ccccc2)nc1C`, the GI50 was > 100 µM (inactive) in [1]; > 100 µM (inactive) in [2]; > 100 µM (inactive) in test [8]; > 100 µM (inactive) in test [3]; > 100 µM (inactive) in test [4]; 43.9 µM (inactive) in test [9]. In addition, the GI50 was > 100 µM (inactive) in test [5], > 100 µM (inactive) in test [6] and 72.6 µM (inactive) in [7].
`COc1ccc(-n2/c(=N/C(=S)N(C)C)ss/c2=N\C(=S)N(C)C)cc1`: the GI50 in test [2] was 10.7 µM (inactive); in test [4] it was 39.4 µM (inactive); in test [6], 7.43 µM (inactive); in test [7] it was 7.36 µM (inactive).
`CC(=O)Nc1ccc(/C=C/C(=O)c2sc(-c3cccnc3)nc2C)cc1`: the GI50 in test [1], in test [2], in test [4], in test [5], in [6] and in test [7] was > 100 µM (inactive) throughout.
